In ChEMBL document CHEMBL1140860, “Synthesis and evaluation of dihydroartemisinin and dihydroartemisitene acetal dimers showing anticancer and antiprotozoal activity” (Bioorg Med Chem, 2009):

How the values were obtained:
[1] = test system: HT-29; test: Growth inhibition of human HT-29 cells after 48 hrs by sulforhodamine B assay; format: functional; conditions: HT-29, 48 h
[2] = test system: MOLT-4; test: Growth inhibition of human MOLT4 cells after 48 hrs by sulforhodamine B assay; format: functional; conditions: MOLT-4, 48 h
[3] = test system: SK-MEL-28; test: Growth inhibition of human SK-MEL-28 cells after 48 hrs by sulforhodamine B assay; format: functional; conditions: SK-MEL-28, 48 h
[4] = test system: NCI/ADR-RES; test: Growth inhibition of human NCI/ADR-RES cells after 48 hrs by sulforhodamine B assay; format: functional
[5] = test system: K562; test: Growth inhibition of human K562 cells after 48 hrs by sulforhodamine B assay; format: functional; conditions: K562, 48 h
[6] = test system: Plasmodium falciparum; test: Antimalarial activity after 72 hrs against chloroquine-resistant Plasmodium falciparum W2 infected erythrocytes by LDH assay; format: functional, organism-based; conditions: W2, 72 h
[7] = test system: SK-OV-3; test: Growth inhibition of human SKOV3 cells after 48 hrs by sulforhodamine B assay; format: functional; conditions: SK-OV-3, 48 h
[8] = test system: LOX IMVI; test: Growth inhibition of human LOXIMVI cells after 48 hrs by sulforhodamine B assay; format: functional
[9] = test system: COLO 205; test: Growth inhibition of human COLO205 cells after 48 hrs by sulforhodamine B assay; format: functional; conditions: COLO 205, 48 h
[10] = test system: Malme-3M; test: Growth inhibition of human MALME-3M cells after 48 hrs by sulforhodamine B assay; format: functional
[11] = test system: SNB-75; test: Growth inhibition of human SNB75 cells after 48 hrs by sulforhodamine B assay; format: functional; conditions: SNB-75, 48 h
[12] = test system: MDA-MB-435; test: Growth inhibition of human MDA-MB-435 cells after 48 hrs by sulforhodamine B assay; format: functional; conditions: MDA-MB-435, 48 h
[13] = test system: HL-60; test: Growth inhibition of human HL-60(TB) cells after 48 hrs by sulforhodamine B assay; format: functional; conditions: HL-60, 48 h
[14] = test system: HOP-62; test: Growth inhibition of human HOP62 cells after 48 hrs by sulforhodamine B assay; format: functional; conditions: HOP-62, 48 h
[15] = test system: UACC-257; test: Growth inhibition of human UACC257 cells after 48 hrs by sulforhodamine B assay; format: functional; conditions: UACC-257, 48 h
[16] = test system: T47D; test: Growth inhibition of human T47D cells after 48 hrs by sulforhodamine B assay; format: functional
[17] = test system: SK-MEL-2; test: Growth inhibition of human SK-MEL-2 cells after 48 hrs by sulforhodamine B assay; format: functional; conditions: SK-MEL-2, 48 h
[18] = test system: OVCAR-8; test: Growth inhibition of human OVCAR8 cells after 48 hrs by sulforhodamine B assay; format: functional; conditions: OVCAR-8, 48 h
[19] = test system: PC-3; test: Growth inhibition of human PC3 cells after 48 hrs by sulforhodamine B assay; format: functional; conditions: PC-3, 48 h
[20] = test system: HCC 2998; test: Growth inhibition of human HCC2998 cells after 48 hrs by sulforhodamine B assay; format: functional; conditions: HCC 2998, 48 h
[21] = test system: M14; test: Growth inhibition of human M14 cells after 48 hrs by sulforhodamine B assay; format: functional; conditions: M14, 48 h
[22] = test system: HCT-15; test: Growth inhibition of human HCT15 cells after 48 hrs by sulforhodamine B assay; format: functional; conditions: HCT-15, 48 h
[23] = test system: HOP-92; test: Growth inhibition of human HOP92 cells after 48 hrs by sulforhodamine B assay; format: functional; conditions: HOP-92, 48 h
[24] = test system: OVCAR-3; test: Growth inhibition of human OVCAR-3 cells after 48 hrs by sulforhodamine B assay; format: functional; conditions: OVCAR-3, 48 h
[25] = test system: CCRF-CEM; test: Growth inhibition of human CCRF-CEM cells after 48 hrs by sulforhodamine B assay; format: functional
[26] = test system: A549; test: Growth inhibition of human A549 cells after 48 hrs by sulforhodamine B assay; format: functional; conditions: A549, 48 h
[27] = test system: RXF 393; test: Growth inhibition of human RXF393 cells after 48 hrs by sulforhodamine B assay; format: functional; conditions: RXF 393, 48 h
[28] = test system: MCF7; test: Growth inhibition of human MCF7 cells after 48 hrs by sulforhodamine B assay; format: functional; conditions: MCF7, 48 h
[29] = test system: UACC-62; test: Growth inhibition of human UACC62 cells after 48 hrs by sulforhodamine B assay; format: functional; conditions: UACC-62, 48 h
[30] = test system: U-251; test: Growth inhibition of human U251 cells after 48 hrs by sulforhodamine B assay; format: functional; conditions: U-251, 48 h
[31] = test system: TK-10; test: Growth inhibition of human TK10 cells after 48 hrs by sulforhodamine B assay; format: functional; conditions: TK-10, 48 h
[32] = test system: 786-0; test: Growth inhibition of human 786-0 cells after 48 hrs by sulforhodamine B assay; format: functional; conditions: 786-0, 48 h
[33] = Growth inhibition of human Hs 578T cells after 48 hrs by sulforhodamine B assay; format: functional
[34] = test system: KM12; test: Growth inhibition of human KM12 cells after 48 hrs by sulforhodamine B assay; format: functional; conditions: KM12, 48 h
[35] = test system: NCI-H322M; test: Growth inhibition of human NCI-H322M cells after 48 hrs by sulforhodamine B assay; format: functional
[36] = test system: NCI-H522; test: Growth inhibition of human NCI-H522 cells after 48 hrs by sulforhodamine B assay; format: functional; conditions: NCI-H522, 48 h
[37] = Cytotoxicity against african green monkey Vero cells after 48 hrs by neutral red assay; format: cell-based; conditions: chlorocebus sabaeus, read-out: TC50
[38] = test system: ACHN; test: Growth inhibition of human ACHN cells after 48 hrs by sulforhodamine B assay; format: functional
[39] = test system: SK-MEL-5; test: Growth inhibition of human SK-MEL-5 cells after 48 hrs by sulforhodamine B assay; format: functional; conditions: SK-MEL-5, 48 h
[40] = test system: EKVX; test: Growth inhibition of human EKVX cells after 48 hrs by sulforhodamine B assay; format: functional
[41] = Selectivity index, ratio of TC50 for african green monkey (Cercopithecus aethiops) Vero cells to IC50 for chloroquine-resistant Plasmodium falciparum W2; format: toxicity, cell-based
[42] = test system: UO-31; test: Growth inhibition of human UO31 cells after 48 hrs by sulforhodamine B assay; format: functional; conditions: UO-31, 48 h
[43] = Growth inhibition of human […] cells after 48 hrs by sulforhodamine B assay; format: functional
[44] = test system: BT-549; test: Growth inhibition of human BT549 cells after 48 hrs by sulforhodamine B assay; format: functional; conditions: BT-549, 48 h
[45] = test system: SF-539; test: Growth inhibition of human SF539 cells after 48 hrs by sulforhodamine B assay; format: functional; conditions: SF-539, 48 h
[46] = test system: A498; test: Growth inhibition of human A498 cells after 48 hrs by sulforhodamine B assay; format: functional; conditions: A498, 48 h
[47] = test system: CAKI-1; test: Growth inhibition of human Caki1 cells after 48 hrs by sulforhodamine B assay; format: functional; conditions: CAKI-1, 48 h
[48] = test system: NCI-H23; test: Growth inhibition of human NCI-H23 cells after 48 hrs by sulforhodamine B assay; format: functional; conditions: NCI-H23, 48 h
[49] = test system: SN12C; test: Growth inhibition of human SN12C cells after 48 hrs by sulforhodamine B assay; format: functional
[50] = test system: HCT-116; test: Growth inhibition of human HCT116 cells after 48 hrs by sulforhodamine B assay; format: functional; conditions: HCT-116, 48 h
[51] = test system: SF-268; test: Growth inhibition of human SF268 cells after 48 hrs by sulforhodamine B assay; format: functional; conditions: SF-268, 48 h
[52] = test system: OVCAR-4; test: Growth inhibition of human OVCAR4 cells after 48 hrs by sulforhodamine B assay; format: functional; conditions: OVCAR-4, 48 h
[53] = test system: Plasmodium falciparum; test: Antimalarial activity after 72 hrs against chloroquine-sensitive Plasmodium falciparum D6 infected in erythrocytes by LDH assay; format: functional, organism-based; conditions: D6, 72 h
[54] = test system: MDA-MB-231; test: Growth inhibition of human MDA-MB-231 cells after 48 hrs by sulforhodamine B assay; format: functional; conditions: MDA-MB-231, 48 h
[55] = test system: MDA-N; test: Growth inhibition of human MDA-N cells after 48 hrs by sulforhodamine B assay; format: functional
[56] = test system: NCI-H460; test: Growth inhibition of human NCI-H460 cells after 48 hrs by sulforhodamine B assay; format: functional; conditions: NCI-H460, 48 h
[57] = Selectivity index, ratio of TC50 for african green monkey (Cercopithecus aethiops) Vero cells to IC50 for chloroquine-sensitive Plasmodium falciparum D6; format: toxicity, cell-based
[58] = test system: SF-295; test: Growth inhibition of human SF295 cells after 48 hrs by sulforhodamine B assay; format: functional; conditions: SF-295, 48 h
[59] = test system: NCI-H226; test: Growth inhibition of human NCI-H226 cells after 48 hrs by sulforhodamine B assay; format: functional; conditions: NCI-H226, 48 h
[60] = test system: SNB-19; test: Growth inhibition of human SNB19 cells after 48 hrs by sulforhodamine B assay; format: functional; conditions: SNB-19, 48 h
[61] = test system: SW-620; test: Growth inhibition of human SW620 cells after 48 hrs by sulforhodamine B assay; format: functional; conditions: SW-620, 48 h
[62] = test system: IGROV-1; test: Growth inhibition of human IGROV1 cells after 48 hrs by sulforhodamine B assay; format: functional; conditions: IGROV-1, 48 h
[63] = test system: OVCAR-5; test: Growth inhibition of human OVCAR5 cells after 48 hrs by sulforhodamine B assay; format: functional; conditions: OVCAR-5, 48 h
[64] = test system: Leishmania donovani; test: Antileishmanial activity against Leishmania donovani promastigotes after 48 hrs by alamar-blue assay; format: functional, organism-based

C[C@H]1[C@@H](O[C@@H](C)CO[C@H]2O[C@@H]3O[C@@]4(C)CC[C@H]5[C@H](C)CC[C@@H]([C@H]2C)[C@@]35OO4)O[C@@H]2O[C@@]3(C)CC[C@H]4[C@H](C)CC[C@@H]1[C@@]24OO3
GI50 [1]: 0.012 µM | GI50 [2]: < 0.01 µM | GI50 [3]: 16.3 µM | GI50 [4]: 0.264 µM | GI50 [5]: < 0.01 µM | IC50 [6]: 5.1 µM | GI50 [7]: 23.6 µM | GI50 [8]: 0.179 µM | GI50 [9]: 0.012 µM | GI50 [10]: 0.037 µM | GI50 [11]: 0.332 µM | GI50 [12]: 0.027 µM | GI50 [13]: < 0.01 µM | GI50 [14]: 15.9 µM | GI50 [15]: 0.021 µM | GI50 [16]: < 0.01 µM | GI50 [17]: 0.062 µM | GI50 [18]: 0.034 µM | GI50 [19]: 0.009 µM | GI50 [20]: 0.049 µM | GI50 [21]: 0.018 µM | GI50 [22]: < 0.01 µM | GI50 [23]: 0.063 µM | GI50 [24]: 0.046 µM | GI50 [25]: 0.018 µM | GI50 [26]: 0.018 µM | GI50 [27]: < 0.01 µM | GI50 [28]: < 0.01 µM | GI50 [29]: 0.016 µM | GI50 [30]: < 0.01 µM | GI50 [31]: 17.9 µM | GI50 [32]: 0.048 µM | GI50 [33]: 0.021 µM | GI50 [34]: < 0.01 µM | GI50 [35]: 0.088 µM | GI50 [36]: 0.054 µM | CC50 at 48 h [37]: > 78 µM | GI50 [38]: 0.033 µM | GI50 [39]: 0.029 µM | GI50 [40]: 0.037 µM | selectivity ratio [41]: > 15 | GI50 [42]: 0.031 µM | GI50 [43]: < 0.01 µM | GI50 [44]: 0.058 µM | GI50 [45]: 0.039 µM | GI50 [46]: 0.409 µM | GI50 [47]: 0.376 µM | GI50 [48]: 0.037 µM | GI50 [49]: 0.025 µM | GI50 [50]: < 0.01 µM | GI50 [51]: 0.065 µM | GI50 [52]: 0.072 µM | IC50 [53]: 3.8 µM | GI50 [54]: 0.08 µM | GI50 [55]: 0.042 µM | GI50 [56]: 0.027 µM | selectivity ratio [57]: > 21 | GI50 [58]: 0.092 µM | GI50 [59]: 0.226 µM | GI50 [60]: 0.104 µM | GI50 [61]: < 0.01 µM | GI50 [62]: 0.13 µM | GI50 [63]: 0.027 µM

C[C@@H]1[C@H](O)[C@@H](C)/C=C/C=C/C=C/C=C/C=C/C=C/C=C/[C@H](O[C@@H]2O[C@H](C)[C@@H](O)[C@H](N)[C@@H]2O)C[C@@H]2O[C@](O)(C[C@@H](O)C[C@@H](O)[C@H](O)CC[C@@H](O)C[C@@H](O)CC(=O)O[C@H]1C)C[C@H](O)[C@H]2C(=O)O [AMPHOTERICIN B]
IC50 [64]: 0.1 µM | IC90 [64]: 0.2 µM

C[C@@H]1CC[C@H]2[C@@H](C)C(=O)O[C@@H]3O[C@@]4(C)CC[C@@H]1[C@]32OO4 [ARTEMISININ]
CC50 at 48 h [37]: > 1690 µM | selectivity ratio [41]: > 106 | selectivity ratio [57]: > 170

N=C(N)c1ccc(OCCCCCOc2ccc(C(=N)N)cc2)cc1 [PENTAMIDINE]
IC50 [64]: 3.5 µM | IC90 [64]: 14.7 µM
